Like-named read-outs stand apart in the source and are kept apart here.
Tested on: cellular H3K27 methylation
Assay: Cellular H3K27 methylation assay (Western blot of H3K27me3 in HeLa cells)
Type: cell-based
Settings: Homo sapiens, 72 h, read-out: PD IC50
[1] = HeLa cells, 3 days, H3K27me3 level by Western blot

IC50 [1]	SMILES	IC50 (HeLa)
484 nM	Fc1ccc2c(c1CNc1nccc3nncn13)CCO2 [HJM-001]	–
98.8 nM	Fc1ccc2c(c1CNc1ncc(C3CC3)c3nncn13)CCO2 [HJM-002]	–
140 nM	Fc1ccc2c(c1CNc1ncc(C3CCCCO3)c3nncn13)CCO2 (stereo not shown) [HJM-004, N-((5-fluoro-2,3-dihydrobenzofuran-4-yl)methyl)-8-(tetrahydro-2H-pyran-2-yl)-[1,2,4]triazolo[4,3-c]pyrimidin-5-amine]	–
454 nM	Cc1ncccc1CCc1cnc(NCc2c(F)ccc3c2CCO3)n2cnnc12 [HJM-005]	–
48.7 nM	Fc1ccc2c(c1CNc1ncc(/C=C/CN3CCCCC3)c3nncn13)CCO2 [HJM-006]	–
49.9 nM	Fc1ccc2c(c1CNc1ncc(/C=C/CN3CCOCC3)c3nncn13)CCO2 [HJM-007]	–
112 nM	Fc1ccc2c(c1CNc1ncc(CCCN3CCCCC3)c3nncn13)CCO2 [HJM-008]	–
563 nM	CC(c1cnc(NCc2c(F)ccc3c2CCO3)n2cnnc12)N1CCCCC1 (stereo not shown) [HJM-009]	–
112 nM	COCCC(COC)c1cnc(NCc2c(F)ccc3c2CCO3)n2cnnc12 (stereo not shown) [HJM-012]	–
43.7 nM	COc1cnc(NCc2c(F)ccc3c2CCO3)n2cnnc12 [HJM-014]	–
59.2 nM	Fc1ccc2c(c1CNc1ncc(OC3CCOC3)c3nncn13)CCO2 (stereo not shown) [HJM-018]	–
242 nM	Cc1ncccc1COc1cnc(NCc2c(F)ccc3c2CCO3)n2cnnc12 [HJM-021]	–
284 nM	Fc1ccc2c(c1CNc1ncc(NCC3CC3)c3nncn13)CCO2 [HJM-022]	–
1160 nM	Fc1ccc2c(c1CNc1ncc(NCCN3CCOCC3)c3nncn13)CCO2 [HJM-023]	–
1110 nM	CN(CCN1CCOCC1)c1cnc(NCc2c(F)ccc3c2CCO3)n2cnnc12 [HJM-024]	–
75.6 nM	CCN(CC)C(=O)c1cnc(NCc2c(F)ccc3c2CCO3)n2cnnc12 [HJM-026]	–
95.3 nM	O=C(c1cnc(NCc2c(F)ccc3c2CCO3)n2cnnc12)N1CCCCC1 [HJM-028]	–
82.2 nM	O=C(NC1CC1)c1cnc(NCc2c(F)ccc3c2CCO3)n2cnnc12 [HJM-029]	–

IC50 [1]	SMILES	IC50 (HeLa)
317 nM	O=C(CN1CCOCC1)Nc1cnc(NCc2c(F)ccc3c2CCO3)n2cnnc12 [HJM-032]	–
99.5 nM	COCCC(=O)Nc1cnc(NCc2c(F)ccc3c2CCO3)n2cnnc12 [HJM-034]	–
53.6 nM	O=C(Nc1cnc(NCc2c(F)ccc3c2CCO3)n2cnnc12)C1CCC1 [HJM-035]	–
160 nM	O=C(Nc1cnc(NCc2c(F)ccc3c2CCO3)n2cnnc12)C1CCCC1 [HJM-036]	–
187 nM	O=C(Nc1cnc(NCc2c(F)ccc3c2CCO3)n2cnnc12)C1CCOC1 (stereo not shown) [HJM-038]	–
67.2 nM	O=C(Nc1cnc(NCc2c(F)ccc3c2CCO3)n2cnnc12)C1CCCCO1 (stereo not shown) [HJM-039]	–
175 nM	O=C(Nc1cnc(NCc2c(F)ccc3c2CCO3)n2cnnc12)C1CCCOC1 (stereo not shown) [HJM-040]	–
334 nM	O=C(Nc1cnc(NCc2c(F)ccc3c2CCO3)n2cnnc12)C1CCOCC1 [HJM-041]	–
–	O=C(Nc1cnc(NCc2c(F)ccc3c2CCO3)n2cnnc12)c1cccnc1 [HJM-043]	115 nM
288 nM	O=C(Nc1cnc(NCc2c(F)ccc3c2CCO3)n2cnnc12)c1ccncc1 [HJM-044]	–
2000 nM	COc1cccc(F)c1CNc1ncc(/C=C/c2cccnc2C)c2nncn12 [HJM-046]	–
7000 nM	COc1cccc(F)c1CNc1ncc(CCc2cccnc2C)c2nncn12 [HJM-047]	–
1620 nM	COc1cccc(F)c1CNc1ncc(Oc2cccnc2C)c2nncn12 [HJM-048]	–
296 nM	COc1cccc(F)c1CNc1ncc(/C=C/CN2CCCCC2)c2nncn12 [HJM-049]	–
50.5 nM	CS(=O)(=O)N1CCC(c2cnc(NCc3c(F)ccc4c3CCO4)n3cnnc23)C1 (stereo not shown) [HJM-050]	–
167 nM	Fc1ccc2c(c1CNc1ncc(C3CCCCC3)c3nncn13)CCO2 [HJM-051]	–
28.8 nM	CN1CCCC(c2cnc(NCc3c(F)ccc4c3CCO4)n3cnnc23)C1 (stereo not shown) [HJM-053]	–
31.1 nM	Fc1ccc2c(c1CNc1ncc(C3CCOC3)c3nncn13)CCO2 (stereo not shown) [HJM-054]	–

SMILES	IC50 [1]	IC50 (HeLa)
Fc1ccc2c(c1CNc1ncc(OCCN3CCOCC3)c3nncn13)CCO2 [HJM-013]	225 nM	–

From US12552796B2, “EED inhibitor, and preparation method therefor and use thereof” (SHANGHAITECH UNIVERSITY, priority 2019, dated 2026)
